The text below walks through data of US20210170033A1, “NOVEL CONJUGATES OF A PHARMACEUTICAL AGENT AND A MOIETY CAPABLE OF BINDING TO A GLUCOSE SENSING PROTEIN” (SANOFI, priority 2017, published 2021).

The test system of test [1] is A2780 Human Carcinoma Cells. The test is described as follows: Glucose displacement assay (ATP measurement, CellTiter-Glo). Conditions: ATP measurement in A2780 cells, 0.5 μM rotenone. The format is cell-based. On the procedure: 2. Glucose Displacement Assay (ATP Measurement)
30,000 A2780 Human Carcinoma Cells are seeded per well in a Greiner 96-well plate. Cells are expanded and cultured in RPMI 1640 medium+GlutaMAX® with 10% FCS and 11 mM glucose, at 37° C. with 5% CO2. After 44 h, culture media is changed and washed once with PBS to starvation media consisting of RPMI 1640 medium with 1% FCS without glucose for 2 hours. Cells are then washed with KRB buffer, followed by incubation for 20 min at 37° C. of the treatment mix consisting of 60 μL KRB buffer/well and 10 μL of compound or DMSO 10×. 10 μl of rotenone is added to the mix to a final concentration of 0.5 μM. Cell plates are left for 2 min at room temperature. 20 μL of different glucose concentrations are added to the mix—typically 0.1 to 10 mM range—.
Cells are incubated for another 15 min at 37° C., before measuring ATP with the CellTiter-Glo® Assay, under manufacturer's guidance, but without the equilibration step at room temperature for 30 min. In brief, 100 μl of Cell-Titer-Glo® Reagent is added to the wells containing already 100 μl of the previous reaction mix. Plates are mixed for 2 min at 800 rpm, followed by incubation at room temperature for 10 min to stabilize the luminescent signal. Luminescence is then recorded with the Tekan Ultra Evolution reader.

The subject of the next test is A2780 cells. The test is described as follows: Deoxy-glucose uptake assay in A2780 cells (14C 2-deoxy-D-glucose transport). The format is cell-based. Conditions: Homo sapiens, 20 min; inhibition of 14C 2-deoxy-D-glucose transport into A2780 cells; 20 min compound incubation; read-out: IC50. In outline: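 Radiolabelled 2-deoxy-D-glucose transport over 20 min was scintillation-counted in A2780 cells, grown 48 h, after 20 min compound exposure in KRB. Untreated cells gave the 100% reference, with Cytochalasin B defining background. IC50 values were regressed from triplicate means across 7 or 14 concentrations.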

Setting [2] is: 1 mM glucose, read-out: IC50 [μM] at 1 mM glucose.
The mark [3] stands for this setting: 10 mM glucose, read-out: IC50 [μM] at 10 mM glucose.

Read-outs that look alike come from different tables or passages of the source.

As to `COc1cc(C(=O)OC[C@H]2O[C@H](OC)[C@H](O)[C@@H](O)[C@@H]2O)cc(Cl)c1OCc1cccc(NC(=O)OC(C)(C)C)c1` [Example 20], the IC50 in test [1] (setting [2]) stood at 12.7 µM; in test [1] (setting [3]), 33.9 µM; in the test with A2780 cells, 28.7 µM.
The matching figures for `CO[C@H]1O[C@H](CO)[C@@H](O)[C@H](O)[C@H]1OC(=O)c1cc(Cl)c(OCc2nc3ccccc3n2Cc2ccccc2Cl)c(Cl)c1` [Example 116]: 16.7 µM, 104 µM and 2.2 µM.
The like results for `C#CCCCn1c(COc2c(Cl)cc(C(=O)N[C@H]3[C@@H](OC)O[C@H](CO)[C@@H](O)[C@@H]3O)c(C)c2Cl)nc2ccccc21` [Example 201] were, in that order, 0.393 µM, 2.4 µM and 4.5 µM.
Consider `C#CCCC(=O)Nc1cccc(COc2c(Cl)cc(C(=O)O[C@H]3[C@@H](OC)O[C@H](CO)[C@@H](O)[C@@H]3O)c(C)c2Cl)c1` [Example 206], for which the IC50 is 1.7 µM in test [1] (setting [2]), greater than 10 µM in test [1] (setting [3]) and 8.4 µM in the test on A2780 cells.
Regarding `C#CCCCn1cnc(COc2c(Cl)cc(C(=O)O[C@H]3[C@@H](OC)O[C@H](CO)[C@@H](O)[C@@H]3O)cc2OC)c1` [Example 208], the results for the IC50 (in test [1] (setting [2]); in test [1] (setting [3]); in the test on A2780 cells) were 21.4 µM, greater than 100 µM and 12.7 µM, respectively.
For the molecule `COc1cc(OCc2ccccc2)c(Cl)cc1C(=O)N[C@H]1[C@@H](OC)O[C@H](CO)[C@@H](O)[C@@H]1O` [Example 232], the figures for the IC50 (in test [1] (setting [2]); in test [1] (setting [3]); in the test on A2780 cells) were 5.6 µM, greater than 33 µM and 7.3 µM, respectively.
The like results for `COc1cc(OCc2ccccc2)c(Cl)cc1C(=O)O[C@H]1[C@@H](OC)O[C@H](CO)[C@@H](O)[C@@H]1O` [Example 233] were, in that order, 1.67 µM, 21.1 µM and 1.1 µM.
The like results for `C#CCCCn1c(COc2c(Cl)cc(C(=O)O[C@H]3[C@@H](OC)O[C@H](CO)[C@@H](O)[C@@H]3O)c(C)c2Cl)nc2ccc(OC)cc21` [Example 291] were, in that order, 0.12 µM, 0.29 µM and 0.1 µM.
Consider `C#CCCCn1c(COc2c(Cl)cc(C(=O)O[C@H]3[C@@H](OC)O[C@H](CO)[C@@H](O)[C@@H]3O)c(C)c2Cl)nc2cc(OC)ccc21` [Example 292], for which the IC50 in test [1] (setting [2]) is 0.13 µM; in test [1] (setting [3]) it was 1.12 µM; with A2780 cells, 0.1 µM.
For the molecule `C#CCCCn1c(COc2cc(OC)c(C(=O)O[C@H]3[C@@H](OC)O[C@H](CO)[C@@H](O)[C@@H]3O)cc2Cl)nc2ccccc21` [Example 294], the IC50 in test [1] (setting [2]) is 0.16 µM; in test [1] (setting [3]), 1.28 µM; in the test with A2780 cells, 0.1 µM.
The like results for `COC(=O)[C@@H](N)CCC(=O)NCc1cccc(COc2c(Cl)cc(C(=O)O[C@H]3[C@@H](OC)O[C@H](CO)[C@@H](O)[C@@H]3O)c(C)c2Cl)c1` [Example 308] were, in that order, 8.85 µM, greater than 33 µM and 35.8 µM.
For `CCOC(=O)CCCCCn1cc(CCCn2c(COc3c(Cl)cc(C(=O)O[C@H]4[C@@H](OC)O[C@H](CO)[C@@H](O)[C@@H]4O)c(C)c3Cl)nc3ccccc32)nn1` [Example 309], the IC50 stood at 0.17 µM in test [1] (setting [2]), 0.71 µM in test [1] (setting [3]) and 0.3 µM in the test on A2780 cells.
`CCOC(=O)CCCn1cc(CCCn2c(COc3c(Cl)cc(C(=O)O[C@H]4[C@@H](OC)O[C@H](CO)[C@@H](O)[C@@H]4O)c(C)c3Cl)nc3ccccc32)nn1` [Example 310]: the results for the IC50 (in test [1] (setting [2]); in test [1] (setting [3]); with A2780 cells) were 0.17 µM, 0.89 µM and 0.4 µM, respectively.
Regarding `CO[C@H]1O[C@H](CO)[C@@H](O)[C@H](O)[C@H]1OC(=O)c1cc(Cl)c(OCc2nc3ccccc3n2CCCc2cn(CCOCCOCC(=O)OC(C)(C)C)nn2)c(Cl)c1C` [Example 311], the 50% inhibitory concentration (IC50) amounted to 0.12 µM in test [1] (setting [2]), 0.7 µM in test [1] (setting [3]) and 0.4 µM in the test on A2780 cells.
Take `COc1cc(C(=O)O[C@H]2[C@@H](OC)O[C@H](CO)[C@@H](O)[C@@H]2O)cc(Cl)c1OCc1cccc(NC(=O)CCc2cc(C)nn2C)c1` [Example 313]: the IC50 in test [1] (setting [2]) is 3.2 µM; in test [1] (setting [3]), 18.8 µM.
Regarding `C#CCCCn1c(COc2cc(Cl)cc(C(=O)O[C@H]3[C@@H](OC)O[C@H](CO)[C@@H](O)[C@@H]3O)c2)nc2ccccc21` [Example 314], the half-inhibitory concentration (IC50) worked out at 2.81 µM in test [1] (setting [2]), 28.5 µM in test [1] (setting [3]) and 9.7 µM in the test on A2780 cells.
With `COC(=O)/C=C/c1ccc(COc2c(Cl)cc(C(=O)N[C@H]3[C@@H](OC)O[C@H](CO)[C@@H](O)[C@@H]3O)c(C)c2Cl)cc1` [Example 315], the IC50 in test [1] (setting [2]) was 2.3 µM; in test [1] (setting [3]), greater than 33 µM; in the test on A2780 cells, 12.9 µM.
The matching figures for `CO[C@H]1O[C@H](CO)[C@@H](O)[C@H](O)[C@H]1NC(=O)c1cc(Cl)c(OCc2ccc(OCC(=O)OC(C)(C)C)cc2)c(Cl)c1C` [Example 316]: 1.52 µM, greater than 33 µM and 1.6 µM.
Consider `CO[C@H]1O[C@H](CO)[C@@H](O)[C@H](O)[C@H]1OC(=O)c1cc(Cl)c(OCc2ccc(OCC(=O)OC(C)(C)C)cc2)c(Cl)c1C` [Example 319], for which the half-inhibitory concentration (IC50) in test [1] (setting [2]) came to 3 µM; in test [1] (setting [3]), 8.03 µM; with A2780 cells, 7.4 µM.
The like results for `C#CCCCCCCn1c(COc2c(Cl)cc(C(=O)O[C@H]3[C@@H](OC)O[C@H](CO)[C@@H](O)[C@@H]3O)c(C)c2Cl)nc2ccccc21` [Example 321] were, in that order, 0.56 µM, 1.2 µM and 0.2 µM.
For the molecule `COC(=O)[C@H](CCCCNC(=O)CCCCCn1c(COc2c(Cl)cc(C(=O)N[C@H]3[C@@H](OC)O[C@H](CO)[C@@H](O)[C@@H]3O)c(C)c2Cl)nc2ccccc21)NC(=O)OC(C)(C)C` [Example 322], the IC50 in test [1] (setting [2]) came out at 1.42 µM; in test [1] (setting [3]), 7.06 µM; with A2780 cells, 20 µM.
The matching figures for `CO[C@H]1O[C@H](CO)[C@@H](O)[C@H](O)[C@H]1NC(=O)c1cc(Cl)c(OCc2noc3ccc(C)cc23)c(Cl)c1C` [Example 324]: 0.94 µM, 7.98 µM and 2.1 µM.
The like results for `CO[C@H]1O[C@H](CO)[C@@H](O)[C@H](O)[C@H]1OC(=O)c1cc(Cl)c(OCc2noc3ccc(C)cc23)c(Cl)c1C` [Example 325] were, in that order, 1.2 µM, 7.19 µM and 0.3 µM.
The matching figures for `C#CCCCn1c(COc2cc(C(=O)O[C@H]3[C@@H](OC)O[C@H](CO)[C@@H](O)[C@@H]3O)cc3c2cnn3C)nc2ccccc21` [Example 327]: 4.99 µM, greater than 33 µM and 9.4 µM.
As to `C#CCCCn1c(COc2c(Cl)cc(C(=O)O[C@H]3[C@@H](OC)O[C@H](CO)[C@@H](O)[C@@H]3O)c(C)c2Cl)nc2ccc(C)cc21` [Example 329], the IC50 was determined as 0.2 µM in test [1] (setting [2]), 0.94 µM in test [1] (setting [3]) and 0.01 µM in the test on A2780 cells.
With `C#CCCCn1c(COc2c(Cl)cc(C(=O)O[C@H]3[C@@H](OC)O[C@H](CO)[C@@H](O)[C@@H]3O)c(C)c2Cl)nc2cc(C)ccc21` [Example 330], the IC50 in test [1] (setting [2]) was determined as 0.92 µM; in test [1] (setting [3]) it was 3.52 µM; with A2780 cells it was 0.3 µM.
Consider `C#CCCC(=O)Nc1cc(COc2c(Cl)cc(C(=O)O[C@H]3[C@@H](OC)O[C@H](CO)[C@@H](O)[C@@H]3O)c(C)c2Cl)ccc1OC` [Example 331], for which the half-maximal inhibitory concentration (IC50) in test [1] (setting [2]) is 0.36 µM; in test [1] (setting [3]) it was 1.79 µM; in the test on A2780 cells, 1.1 µM.
The like results for `CO[C@H]1O[C@H](CO)[C@@H](O)[C@H](O)[C@H]1NC(=O)c1cc(Cl)c(OCc2nc3ccccc3n2CCCCCCNC(=O)[C@H](CC(C)C)N(C)C(=O)OC(C)(C)C)c(Cl)c1C` [Example 341] were, in that order, 0.72 µM, 2.61 µM and 1.6 µM.
The matching figures for `COC(=O)[C@H](CCC(=O)NCCCCCCn1c(COc2c(Cl)cc(C(=O)N[C@H]3[C@@H](OC)O[C@H](CO)[C@@H](O)[C@@H]3O)c(C)c2Cl)nc2ccccc21)NC(=O)OC(C)(C)C` [Example 342]: 2.18 µM, greater than 100 µM and 34.2 µM.
The matching figures for `CO[C@H]1O[C@H](CO)[C@@H](O)[C@H](O)[C@H]1OC(=O)c1cc(Cl)c(OCc2cccc(CNC(=O)CCC(=O)OC(C)(C)C)c2)c(Cl)c1C` [Example 344]: 1.11 µM, 8.59 µM and 1 µM.
Consider `CO[C@H]1O[C@H](CO)[C@@H](O)[C@H](O)[C@H]1OC(=O)c1cc(Cl)c(OCc2cccc(NCCCC(=O)OC(C)(C)C)c2)c(Cl)c1C` [Example 345], for which the half-inhibitory concentration (IC50) in test [1] (setting [2]) turned out to be 2.41 µM; in test [1] (setting [3]) it was 6.59 µM; in the test with A2780 cells, 12.4 µM.
